Experimental data published in ChEMBL document CHEMBL5724914, “Linking interpersonal differences in gut microbiota composition and drug biotransformation activity” (2024).

test: (§1) The drug is tested on Z-030 corresponding to mouse gut metagenome with ENA study accession number: PRJEB37062 and ENA sample accession number: ERS12561829 for biotransformation under anaerobic condition. The drug concentrations were measured over 9 timepoints collected between 0 and 24 hours of incubation by liquid-chromatography-coupled mass spectrometry (LC–MS); details: 2 µM
Note: call rule not given here.

SMILES	Bacterial Biotransformation
CN(C)C(=O)Oc1cc(OC(=O)N(C)C)cc(C(O)CNC(C)(C)C)c1 (stereo not given) [BAMBUTEROL]	Compound NOT metabolized
CCc1oc2ccccc2c1C(=O)c1cc(Br)c(O)c(Br)c1 [BENZBROMARONE]	Compound NOT metabolized

test: as §1, with “Z-026” for “Z-030”, “to” for “to mouse gut”, “ERS12561825” for “ERS12561829”; details: 2 µM

SMILES	Bacterial Biotransformation
CN(C)C(=O)Oc1cc(OC(=O)N(C)C)cc(C(O)CNC(C)(C)C)c1 (stereo not given) [BAMBUTEROL]	Compound NOT metabolized
CCc1oc2ccccc2c1C(=O)c1cc(Br)c(O)c(Br)c1 [BENZBROMARONE]	Compound NOT metabolized

test: as §1, with “Z-020” for “Z-030”, “rabbit” for “mouse”, “ERS12561819” for “ERS12561829”; details: 2 µM

SMILES	Bacterial Biotransformation
CN(C)C(=O)Oc1cc(OC(=O)N(C)C)cc(C(O)CNC(C)(C)C)c1 (stereo not given) [BAMBUTEROL]	Compound NOT metabolized
CCc1oc2ccccc2c1C(=O)c1cc(Br)c(O)c(Br)c1 [BENZBROMARONE]	Compound metabolized

test: as §1, with “Z-008” for “Z-030”, “to” for “to mouse gut”, “ERS12561808” for “ERS12561829”; details: 2 µM

SMILES	Bacterial Biotransformation
CN(C)C(=O)Oc1cc(OC(=O)N(C)C)cc(C(O)CNC(C)(C)C)c1 (stereo not given) [BAMBUTEROL]	Compound NOT metabolized
CCc1oc2ccccc2c1C(=O)c1cc(Br)c(O)c(Br)c1 [BENZBROMARONE]	Compound NOT metabolized

test: as §1, with “Z-003” for “Z-030”, “pig” for “mouse”, “ERS12561803” for “ERS12561829”; details: 2 µM

SMILES	Bacterial Biotransformation
CN(C)C(=O)Oc1cc(OC(=O)N(C)C)cc(C(O)CNC(C)(C)C)c1 (stereo not given) [BAMBUTEROL]	Compound NOT metabolized
CCc1oc2ccccc2c1C(=O)c1cc(Br)c(O)c(Br)c1 [BENZBROMARONE]	Compound metabolized

test: as §1, with “WLS-310” for “Z-030”, “human” for “mouse”, “ERS12561785” for “ERS12561829”; details: 2 µM

SMILES	Bacterial Biotransformation
CN(C)C(=O)Oc1cc(OC(=O)N(C)C)cc(C(O)CNC(C)(C)C)c1 (stereo not given) [BAMBUTEROL]	Compound metabolized
CCc1oc2ccccc2c1C(=O)c1cc(Br)c(O)c(Br)c1 [BENZBROMARONE]	Compound metabolized

test: as §1, with “WLS-220” for “Z-030”, “human” for “mouse”, “ERS12561769” for “ERS12561829”; details: 2 µM

SMILES	Bacterial Biotransformation
CN(C)C(=O)Oc1cc(OC(=O)N(C)C)cc(C(O)CNC(C)(C)C)c1 (stereo not given) [BAMBUTEROL]	Compound metabolized
CCc1oc2ccccc2c1C(=O)c1cc(Br)c(O)c(Br)c1 [BENZBROMARONE]	Compound metabolized

test: as §1, with “WLS-077” for “Z-030”, “human” for “mouse”, “ERS12561750” for “ERS12561829”; details: 2 µM

SMILES	Bacterial Biotransformation
CN(C)C(=O)Oc1cc(OC(=O)N(C)C)cc(C(O)CNC(C)(C)C)c1 (stereo not given) [BAMBUTEROL]	Compound NOT metabolized
CCc1oc2ccccc2c1C(=O)c1cc(Br)c(O)c(Br)c1 [BENZBROMARONE]	Compound metabolized

test: as §1, with “WLS-007” for “Z-030”, “human” for “mouse”, “ERS12561742” for “ERS12561829”; details: 2 µM

SMILES	Bacterial Biotransformation
CN(C)C(=O)Oc1cc(OC(=O)N(C)C)cc(C(O)CNC(C)(C)C)c1 (stereo not given) [BAMBUTEROL]	Compound metabolized
CCc1oc2ccccc2c1C(=O)c1cc(Br)c(O)c(Br)c1 [BENZBROMARONE]	Compound metabolized

details: human gut metagenome, 24 h, 2 µM

SMILES	Bacterial Biotransformation
CN(C)C(=O)Oc1cc(OC(=O)N(C)C)cc(C(O)CNC(C)(C)C)c1 (stereo not given) [BAMBUTEROL]	Compound metabolized
CCc1oc2ccccc2c1C(=O)c1cc(Br)c(O)c(Br)c1 [BENZBROMARONE]	Compound NOT metabolized

details: human gut metagenome, 24 h, 2 µM; remark: another data set of the same source

SMILES	Bacterial Biotransformation
CN(C)C(=O)Oc1cc(OC(=O)N(C)C)cc(C(O)CNC(C)(C)C)c1 (stereo not given) [BAMBUTEROL]	Compound metabolized
CCc1oc2ccccc2c1C(=O)c1cc(Br)c(O)c(Br)c1 [BENZBROMARONE]	Compound metabolized

details: human gut metagenome, 24 h, 2 µM; remark: another data set of the same source

SMILES	Bacterial Biotransformation
CN(C)C(=O)Oc1cc(OC(=O)N(C)C)cc(C(O)CNC(C)(C)C)c1 (stereo not given) [BAMBUTEROL]	Compound metabolized
CCc1oc2ccccc2c1C(=O)c1cc(Br)c(O)c(Br)c1 [BENZBROMARONE]	Compound metabolized

details: human gut metagenome, 24 h, 2 µM; remark: another data set of the same source

SMILES	Bacterial Biotransformation
CN(C)C(=O)Oc1cc(OC(=O)N(C)C)cc(C(O)CNC(C)(C)C)c1 (stereo not given) [BAMBUTEROL]	Compound NOT metabolized
CCc1oc2ccccc2c1C(=O)c1cc(Br)c(O)c(Br)c1 [BENZBROMARONE]	Compound metabolized

details: human gut metagenome, 24 h, 2 µM; remark: another data set of the same source

SMILES	Bacterial Biotransformation
CN(C)C(=O)Oc1cc(OC(=O)N(C)C)cc(C(O)CNC(C)(C)C)c1 (stereo not given) [BAMBUTEROL]	Compound NOT metabolized
CCc1oc2ccccc2c1C(=O)c1cc(Br)c(O)c(Br)c1 [BENZBROMARONE]	Compound metabolized

details: human gut metagenome, 24 h, 2 µM; remark: another data set of the same source

SMILES	Bacterial Biotransformation
CN(C)C(=O)Oc1cc(OC(=O)N(C)C)cc(C(O)CNC(C)(C)C)c1 (stereo not given) [BAMBUTEROL]	Compound metabolized
CCc1oc2ccccc2c1C(=O)c1cc(Br)c(O)c(Br)c1 [BENZBROMARONE]	Compound metabolized

details: human gut metagenome, 24 h, 2 µM; remark: another data set of the same source

SMILES	Bacterial Biotransformation
CN(C)C(=O)Oc1cc(OC(=O)N(C)C)cc(C(O)CNC(C)(C)C)c1 (stereo not given) [BAMBUTEROL]	Compound metabolized
CCc1oc2ccccc2c1C(=O)c1cc(Br)c(O)c(Br)c1 [BENZBROMARONE]	Compound metabolized

details: human gut metagenome, 24 h, 2 µM; remark: another data set of the same source

SMILES	Bacterial Biotransformation
CN(C)C(=O)Oc1cc(OC(=O)N(C)C)cc(C(O)CNC(C)(C)C)c1 (stereo not given) [BAMBUTEROL]	Compound metabolized
CCc1oc2ccccc2c1C(=O)c1cc(Br)c(O)c(Br)c1 [BENZBROMARONE]	Compound metabolized

details: human gut metagenome, 24 h, 2 µM; remark: another data set of the same source

SMILES	Bacterial Biotransformation
CN(C)C(=O)Oc1cc(OC(=O)N(C)C)cc(C(O)CNC(C)(C)C)c1 (stereo not given) [BAMBUTEROL]	Compound NOT metabolized
CCc1oc2ccccc2c1C(=O)c1cc(Br)c(O)c(Br)c1 [BENZBROMARONE]	Compound NOT metabolized

details: human gut metagenome, 24 h, 2 µM; remark: another data set of the same source

SMILES	Bacterial Biotransformation
CN(C)C(=O)Oc1cc(OC(=O)N(C)C)cc(C(O)CNC(C)(C)C)c1 (stereo not given) [BAMBUTEROL]	Compound metabolized
CCc1oc2ccccc2c1C(=O)c1cc(Br)c(O)c(Br)c1 [BENZBROMARONE]	Compound metabolized

details: human gut metagenome, 24 h, 2 µM; remark: another data set of the same source

SMILES	Bacterial Biotransformation
CN(C)C(=O)Oc1cc(OC(=O)N(C)C)cc(C(O)CNC(C)(C)C)c1 (stereo not given) [BAMBUTEROL]	Compound NOT metabolized
CCc1oc2ccccc2c1C(=O)c1cc(Br)c(O)c(Br)c1 [BENZBROMARONE]	Compound NOT metabolized
